Results: article PMC10530720, “Antimicrobial Activity and Toxicity of Newly Synthesized 4-[4-(benzylamino)butoxy]-9H-carbazole Derivatives” (International Journal of Molecular Sciences, 2023)
Values after ≈ are worked out from the molar mass of the structure shown. Read-outs that look alike come from different tables or passages of the source.

Key:
S. aureus [1] = system: S. aureus; design: method as in PMID 34884610; conditions: cited from earlier work
E. coli [2] = system: E. coli; design: method as in PMID 34884610; conditions: highest tested concentration; cited from earlier work
[3] = system: Aspergillus flavus ATCC 9643; test: Broth microdilution (CLSI), growth, MIC and MFC; format: cell-based; conditions: for MBC/MFC: A. flavus (MFC); for MIC: Aspergillus flavus, ATCC9643, A. flavus, 48 h at 37 °C
[4] = system: Escherichia coli ATCC 25922; test: Broth microdilution (CLSI), growth, MIC and MBC; format: cell-based; conditions: for MBC/MFC: E. coli (MBC); for MIC: Escherichia coli, ATCC25922, E. coli, 24 h at 37 °C; for antimicrobial properties against E. coli, ranking in words: among compounds 1–10
[5] = system: Staphylococcus aureus ATCC 29213; test: Broth microdilution (CLSI), growth, MIC and MBC; format: cell-based; conditions: for MIC / inhibition at 16 µg/mL: Staphylococcus aureus; for MIC: ATCC29213, S. aureus, 24 h at 37 °C; for MBC/MFC: S. aureus (MBC); for inhibition at 16 µg/mL: ATCC29213, 16 µg/mL, read-out: inhibition of S. aureus growth
[6] = system: Candida albicans ATCC 10231; test: Broth microdilution (CLSI), growth, MIC and MFC; format: cell-based; conditions: for MBC/MFC: C. albicans (MFC); for inhibition at 64 µg/mL / MIC: Candida albicans; for inhibition at 64 µg/mL: ATCC10231, 64 µg/mL (highest tested concentration), read-out: C. albicans growth inhibition; for MIC: ATCC10231, C. albicans, 48 h at 37 °C
[7] = system: Staphylococcus epidermidis ATCC 12228; test: Broth microdilution (CLSI), growth, MIC and MBC; format: cell-based; conditions: for MIC: Staphylococcus epidermidis, ATCC12228, S. epidermidis, 24 h at 37 °C; for MBC/MFC: S. epidermidis (MBC)
[8] = system: Pseudomonas aeruginosa ATCC 15442; test: Broth microdilution (CLSI), growth, MIC and MBC; format: cell-based; conditions: for MBC/MFC: P. aeruginosa (MBC); for MIC: Pseudomonas aeruginosa, ATCC15442, P. aeruginosa, 24 h at 37 °C
[9] = system: human fibroblast BJ ATCC CRL-2522 cell line; test: Cytotoxic activity, MTT; format: cell-based; conditions: for toxicity to human fibroblasts, ranking in words: among compounds 1–10
Procedure: The cytotoxic properties of the tested compounds were examined using the human fibroblast BJ ATCC CRL-2522 cell line. The fibroblasts, with a final density of 1 × 10^5 cells per well, were suspended in EMEM medium containing FBS (10%) and antibiotics (penicillin, 100 IU/mL and streptomycin, 100 µg/mL), and incubated in 96-well microplates for 24 h in a humidified atmosphere with 5% CO2 at 37 °C. Next, the EMEM medium was replaced with a fresh medium, with the addition of the tested compounds in the concentration range of 1–64 µg/mL. Cell cultures without the tested derivatives were also prepared, as control samples. All the samples were incubated again for 24 h, under the same conditions. Then, the growth medium was removed from above the fibroblasts, and MTT solution (500 µg/mL) was added to each well. The plates were incubated for 4 h under the same conditions. The MTT solution was removed, and the wells were refilled with 50 µL of DMSO, to dissolve the formazan crystals produced. The spectrophotometric measurement of the samples was carried out at λ = 550 nm, using a SpectraMax i3x Multi-Mode Microplate Reader (Molecular Devices Ltd., Wokingham, UK).
The cell viability was calculated as a percentage of the control samples untreated with the tested compounds with a standard deviation. The experiment with n = 4 was carried out in four independent repetitions.

E. coli [10] = system: E. coli; design: method as in Salih et al. 12; conditions: ref Salih et al. 12; cited from earlier work
C. albicans = system: C. albicans; design: method as in PMID 18570365; conditions: cited from earlier work
S. aureus [11] = system: S. aureus; design: method as in Salih et al. 12; conditions: ref Salih et al. 12; cited from earlier work
A. fumigatus = system: A. fumigatus; design: method as in PMID 18570365; conditions: cited from earlier work

| Compound | MBC/MFC [3] [µg/mL] | MIC [3] [µg/mL] | MBC/MFC [4] [µg/mL] | MIC [4] [µg/mL] | melting point [°C] | MIC [5] [µg/mL] | MBC/MFC [6] [µg/mL] | MIC [6] [µg/mL] | MIC [7] [µg/mL] | MBC/MFC [8] [µg/mL] | MIC [8] [µg/mL] | MBC/MFC [5] [µg/mL] | MBC/MFC [7] [µg/mL] | other results |
| --- | --- | --- | --- | --- | --- | --- | --- | --- | --- | --- | --- | --- | --- | --- |
| c1ccc(CNCCCCOc2cccc3[nH]c4ccccc4c23)cc1 [parent compound, 4-[4-(benzylamino)butoxy]-9H-carbazole] | – | – | – | – | – | – | – | – | – | – | – | – | – | reduction in bacterial growth (S. aureus) (S. aureus [1]; 20 µg/mL): 22%; MIC (S. aureus [1]; S. aureus): 30 µg/mL (≈ 87.1 µM); inhibition of E. coli growth (E. coli [2]): 10% |
| Br.Fc1ccccc1CNCCCCOc1cccc2[nH]c3ccccc3c12 [Compound 6, 4-[4-(2-fluorophenylmethylamino)butoxy]-9H-carbazole hydrobromide] | >64 | > 64 | >64 | > 64 | 180 to 182 | 64 | >64 | > 64 | 64 | >64 | > 64 | – | – | antimicrobial properties against E. coli, ranking in words [4]: weakest antimicrobial activity; inhibition at 64 µg/mL [6]: 15% |
| Br.Fc1cccc(CNCCCCOc2cccc3[nH]c4ccccc4c23)c1 [Compound 7, 4-[4-(3-fluorophenylmethylamino)butoxy]-9H-carbazole hydrobromide] | >64 | > 64 | >64 | > 64 | 181 to 183 | 32 | >64 | > 64 | 32 | >64 | > 64 | 64 | 64 | – |
| Br.C[C@H](NCCCCOc1cccc2[nH]c3ccccc3c12)c1ccccc1 [Compound 10, (S)-4-[4-(1-phenylethylamino)butoxy]-9H-carbazole hydrobromide] | >64 | > 64 | >64 | > 64 | – | 32 | >64 | > 64 | 32 | >64 | > 64 | 64 | 64 | – |
| Fc1cccc(CNCCCCOc2cccc3[nH]c4ccccc4c23)c1 [Compound 2, 4-[4-(3-fluorophenylmethylamino)butoxy]-9H-carbazole] | >64 | > 64 | >64 | > 64 | – | 32 (≈ 88.3 µM) | >64 | > 64 | 32 (≈ 88.3 µM) | >64 | > 64 | 32 (≈ 88.3 µM) | 32 (≈ 88.3 µM) | inhibition at 16 µg/mL [5]: > 60%; inhibition at 64 µg/mL [6]: ~60% |
| Br.Fc1ccc(CNCCCCOc2cccc3[nH]c4ccccc4c23)cc1 [Compound 8, 4-[4-(4-fluorophenylmethylamino)butoxy]-9H-carbazole hydrobromide] | >64 | > 64 | >64 | > 64 | 203 to 206 | 32 | >64 | > 64 | 32 | >64 | > 64 | 64 | 64 | reduction in E. coli growth ([4]; 64 µg/mL (highest tested concentration)): 50%; antimicrobial properties against E. coli, ranking in words [4]: strongest antimicrobial properties; inhibition at 16 µg/mL [5]: 65% |
| Br.C[C@@H](NCCCCOc1cccc2[nH]c3ccccc3c12)c1ccccc1 [Compound 9, (R)-4-[4-(1-phenylethylamino)butoxy]-9H-carbazole hydrobromide] | >64 | > 64 | >64 | > 64 | 92 to 96 | 32 | >64 | > 64 | 32 | >64 | > 64 | 64 | 64 | decrease in cell viability ([9]; 4 µg/mL, human fibroblasts, 24 h): 40%; toxicity to human fibroblasts, ranking in words [9]: highest toxicity |
| Fc1ccc(CNCCCCOc2cccc3[nH]c4ccccc4c23)cc1 [Compound 3, 4-[4-(4-fluorophenylmethylamino)butoxy]-9H-carbazole] | >64 | > 64 | >64 | > 64 | – | 32 (≈ 88.3 µM) | >64 | > 64 | 32 (≈ 88.3 µM) | >64 | > 64 | – | – | antimicrobial properties against E. coli, ranking in words [4]: strongest antimicrobial properties |
| C[C@@H](NCCCCOc1cccc2[nH]c3ccccc3c12)c1ccccc1 [Compound 4, (R)-4-[4-(1-phenylethylamino)butoxy]-9H-carbazole] | >64 | > 64 | >64 | > 64 | – | 32 (≈ 89.3 µM) | >64 | > 64 | 32 (≈ 89.3 µM) | >64 | > 64 | 32 (≈ 89.3 µM) | 32 (≈ 89.3 µM) | inhibition at 16 µg/mL [5]: > 60% |
| Fc1ccccc1CNCCCCOc1cccc2[nH]c3ccccc3c12 [Compound 1, 4-[4-(2-fluorophenylmethylamino)butoxy]-9H-carbazole] | >64 | > 64 | >64 | > 64 | 179 to 181 | 64 (≈ 177 µM) | >64 | > 64 | 64 (≈ 177 µM) | >64 | > 64 | – | – | reduction of cell viability ([9]; 32 µg/mL, human fibroblasts, 24 h): about 60%; toxicity to human fibroblasts, ranking in words [9]: least toxic |
| C[C@@H]1[C@H](O)[C@@H](C)/C=C/C=C/C=C/C=C/C=C/C=C/C=C/[C@H](O[C@@H]2O[C@H](C)[C@@H](O)[C@H](N)[C@@H]2O)C[C@@H]2O[C@](O)(C[C@@H](O)C[C@@H](O)[C@H](O)CC[C@@H](O)C[C@@H](O)CC(=O)O[C@H]1C)C[C@H](O)[C@H]2C(=O)O [Amphotericin B, reference compound] | 16 (≈ 17.3 µM) | 4 (≈ 4.33 µM) | – | – | – | – | 1 (≈ 1.08 µM) | 1 (≈ 1.08 µM) | – | – | – | – | – | – |
| CC1=NN(c2ccccc2)C(=O)C1=NNNC(=O)Cn1c2ccccc2c2ccccc21 [derivative 8, (4-[3-(9H-Carbazol-9-yl-acetyl)triazanylidene]-5-methyl-2-phenyl-2,4-dihydro-3H-pyrazol-3-one)] | – | – | – | – | – | – | – | – | – | – | – | – | – | MIC (E. coli [10]): 6.4 µg/mL (≈ 15.1 µM); MIC (C. albicans): 9.6 µg/mL (≈ 22.6 µM); MIC (S. aureus [11]): 1.1 µg/mL (≈ 2.59 µM); MIC (A. fumigatus): 10.3 µg/mL (≈ 24.3 µM) |
| C[C@H](NCCCCOc1cccc2[nH]c3ccccc3c12)c1ccccc1 [Compound 5, (S)-4-[4-(1-phenylethylamino)butoxy]-9H-carbazole] | >64 | > 64 | >64 | > 64 | – | 32 (≈ 89.3 µM) | >64 | > 64 | 32 (≈ 89.3 µM) | >64 | > 64 | 64 (≈ 179 µM) | 64 (≈ 179 µM) | – |
